In article PMC12494543, “Identification of ALKBH6 as a nucleotide demethylase with a distinct substrate preference” (The Journal of Biological Chemistry, 2025):

Tests used:
ALKBH6 [1] = target: T1, ALKBH6 (Homo sapiens, UniProt Q3KRA9); experiment: Uncoupled succinate production (SucCD colorimetric assay); type: biochemical; conditions: CoCl2 20 μM, no substrate
T1 construct: His-tag; made in house
Experimental: The uncoupled succinate production reaction was set up in two steps as described before ([54]). In the initial step, WT ALKBH6 (5–20 μM) was incubated in dioxygenase reaction buffer (20 mM Hepes, pH 8.0, 0.2 mM 2OG, 2 mM ascorbate, 5 μM Fe(NH4)2(SO4)2) for 1 h at 37 °C to form succinate. Then the reaction mixture (50 μl) was mixed with recombinant sucCD (1 μM) in SucCD reaction buffer (2 mM MES, pH 6.5, 5 mM ATP 3.258 mM CoA, 50 mM MgCl2) and further incubated for 30 min at 37 °C. Finally, molybdate solution was added for colorimetric detection and the succinate concentration was detected from the standard curve. For inhibition, CoCl2 (20 μM) was used. The results were plotted and analyzed using GraphPad Prism (www.graphpad.com).

ALKBH6 [2] = target: T1, ALKBH6; experiment: FDH-coupled formaldehyde release demethylation assay; type: biochemical; conditions: me-dNMPs as substrate
Experimental: NMPs including 1meAMP (Jena Bioscience, NU-1029-1,) 7meGMP (Jena Bioscience, NU-1135S), 6me-AMP (Sigma, M2780) were purchased. N-methylated deoxy-NMPs were prepared by methylating chemically synthesized 30-mer oligonucleotide containing either dA, dG, dC, or dT by MMS (5%, v/v) (0.59 M) MMS (Sigma, 129925) and purified as described before ([17]). The oligonucleotides were digested with nuclease P1 (NEB) at 37 °C for 4 h to produce deoxy-NMPs. After heat inactivating the nuclease, dNMPs were purified by HPLC and used for the demethylation reaction. N-methylated NMPs were purified similarly, using RNA as the starting material. For the demethylation reaction, ALKBH6 (1 μM) and me-dNMPs (1 mM) were mixed in the dioxygenase reaction buffer and incubated at 37 °C for 30 min. Formaldehyde release was detected by FDH-coupled DNA repair assay as described before ([32], [33]). Briefly, 1 mM NAD+ and 0.01 U FDH were added to the dioxygenase reaction buffer containing methylated nucleotide and ALKBH6. NADH generated was detected by the characteristic absorption peak (340 nm) using a 96-well multimode reader (Synergy, Biotek Instrument). Formaldehyde production was quantified from the standard curve and the initial velocities were determined using various substrate concentrations. The results were plotted and analyzed using GraphPad Prism.

T1 sequence (Q3KRA9 whole entry): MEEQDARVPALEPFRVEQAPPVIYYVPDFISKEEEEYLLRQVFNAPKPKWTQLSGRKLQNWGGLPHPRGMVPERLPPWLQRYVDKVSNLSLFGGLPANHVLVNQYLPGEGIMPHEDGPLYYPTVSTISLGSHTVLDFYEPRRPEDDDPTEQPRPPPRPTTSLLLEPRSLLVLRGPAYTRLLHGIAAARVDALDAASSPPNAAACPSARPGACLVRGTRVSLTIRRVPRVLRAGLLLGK

## [Cl][Co][Cl] [Co(II), cobalt chloride, reference compound]
ALKBH6 [1]
  inhibition of uncoupled succinate production: inhibited
ALKBH6 [2]
  inhibition of ALKBH6-mediated demethylation: completely inhibited
